Biological target: T1, Axl (Homo sapiens, UniProt P30530)
T1 construct: endogenous in cells; host or cells: HeLa cells
T1 sequence (P30530 26-894): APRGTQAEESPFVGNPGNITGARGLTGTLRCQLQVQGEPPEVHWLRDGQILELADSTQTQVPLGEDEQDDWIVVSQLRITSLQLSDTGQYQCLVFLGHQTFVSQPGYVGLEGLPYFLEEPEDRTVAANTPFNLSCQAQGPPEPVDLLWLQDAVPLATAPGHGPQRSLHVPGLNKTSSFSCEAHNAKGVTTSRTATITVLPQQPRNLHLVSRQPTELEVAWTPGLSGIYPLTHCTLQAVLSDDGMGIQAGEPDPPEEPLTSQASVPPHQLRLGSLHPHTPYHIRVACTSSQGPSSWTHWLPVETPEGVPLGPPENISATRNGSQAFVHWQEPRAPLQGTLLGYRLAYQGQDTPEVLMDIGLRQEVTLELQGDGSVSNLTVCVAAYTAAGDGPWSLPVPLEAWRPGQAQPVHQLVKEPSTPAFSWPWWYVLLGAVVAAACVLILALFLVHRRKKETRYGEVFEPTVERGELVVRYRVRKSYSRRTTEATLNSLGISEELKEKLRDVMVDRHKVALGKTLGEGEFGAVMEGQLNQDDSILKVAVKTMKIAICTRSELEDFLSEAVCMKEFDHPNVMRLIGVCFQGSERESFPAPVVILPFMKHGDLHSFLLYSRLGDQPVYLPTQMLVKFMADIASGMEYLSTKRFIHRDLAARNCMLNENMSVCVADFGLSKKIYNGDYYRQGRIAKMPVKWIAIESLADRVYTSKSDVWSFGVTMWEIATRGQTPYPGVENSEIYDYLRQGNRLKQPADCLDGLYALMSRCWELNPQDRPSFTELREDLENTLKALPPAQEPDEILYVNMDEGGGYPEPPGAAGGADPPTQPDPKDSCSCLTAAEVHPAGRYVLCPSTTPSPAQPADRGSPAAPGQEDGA
Assay: Phospho-Akt in-cell Western assay (inhibition of Axl activity)
Format: cell-based
Protocol: The compounds of the invention were tested in the following assay for their ability to inhibit Axl activity.
Phospho-Akt in-Cell Western Assay
• Cell culture plate: 96 well assay plate (Corning 3610), white, clear bottom, tissue-culture treated. • Cells: Hela cells. • Starvation medium: For Axl stimulation: 0.5% FCS (fetal calf serum) in DMEM, plus Axl/Fc (extracellular domain of AXL fused to immunoglobulin Fc region) (R&D, 154-AL) 500 ng/mL. • For EGF (epidermal growth factor) stimulation: 0.5% FCS in DMEM (Dulbecco's modified Eagles medium). • Poly-L-Lysine 0.01% solution (the working solution): 10 μg/ml, dilute In PBS (phosphate buffered saline). • Axl antibody cross-linking: • 1st: Mouse anti-Axl (R&D, MAB154). • 2nd: Biotin-SP-conjugated AffiniPure goat anti-mouse IgG (H+L) (Jackson ImmunoResearch #115-065-003). • Fixing buffer: 4% formaldehyde in PBS. • Wash buffer: 0.1% TritonX-100 in PBS. • Quenching buffer: 3% H2O2, 0.1% Azide in wash buffer, Azide and hydrogen peroxide (H2O2) are added fresh. • Blocking buffer: 5% BSA in TBST (tris buffered saline plus 0.1% Tween 20). • Primary antibody: Rabbit anti-human Phospho-Akt antibody (Cell Signaling 9271): 1×250 diluted in blocking buffer. • Secondary antibody: HRP (horse radish peroxidase)-conjugated Goat anti-Rabbit secondary, stock solution: Jackson ImmunoResearch (Goat anti-Rabbit HRP, #111-035-144) 1:1 diluted in glycerol, store at −20° C. The working solution: 1×2000 dilution of stock in blocking buffer. • Chemiluminescent working solution (Pierce, 37030): SuperSignal ELISA (enzyme linked immunosorbant assay) Pico Chemiluminescent substrate. • Crystal Violet solution: Stock: 2.5% Crystal violet in methanol, filtered and kept at ambient temperature. The working solution: dilute the stock 1:20 with PBS immediately before use. • 10% SDS: working solution: 5% SDS (sodium dodecylsulfate), diluted in PBS Methods: Day 1:
A 96 well TC (tissue culture treated) plate was coated with 10 μg/mL poly-L-Lysine at 37° C. for 30 min, washed twice with PBS, and air-dried for 5 minutes before cells were added. Hela cells were seeded at 10,000 cells/well and the cells were starved in 100 μL starvation medium containing Axl/Fc for 24 hrs.
The cells were pre-treated with test compounds by adding 100 μL of 2× test compound to the starvation medium on the cells. The cells were incubated at 37° C. for 1 hr before stimulation.
The cells were stimulated by Axl-antibody cross-linking as follows: A 5×1st/2nd Axl antibody mixture was made (37.5 μg/mL 1st/100 μg/mL 2nd) in starvation medium and nutated at 4° C. with thorough mixing for 1-2 hours for clustering. The resulting mix was warmed to 37° C. 50 μL of 5× Axl 1st/2nd of antibody cluster was added to the cells and the cells were incubated at 37° C. for 5 min.
After 5 minutes stimulation, the plate was flicked to remove medium and the plate was tapped onto paper towels. Formaldehyde (4.0% in PBS, 100 μL) was added to fix the cells and the cells were incubated at ambient temperature for 20 min without shaking.
The cells were washed with a plate washer buffer to remove the formaldehyde solution. The plate was flicked to removed excess wash buffer and tapped onto paper towels. Quenching buffer (100 μL) was added to each well and the cells were incubated at ambient temperature for 20 minutes without shaking.
The cells were washed with a plate washer buffer to remove the quenching buffer. Blocking buffer (100 μL) was added and the cells were incubated at ambient temperature for at least an hour with gentle shaking.
The cells were washed with a plate washer buffer and diluted primary antibody (50 μL) was added to each well (blocking buffer was added to the negative control wells instead). The plates were incubated overnight at 4° C. with gentle shaking.
The wash buffer was removed, diluted secondary antibody (100 μL) was added, and the cells were incubated at ambient temperature for 1 hour with gentle shaking. […]

[1] = Table 7, Hela cells, Axl antibody cross-linking stimulation, phospho-Akt chemiluminescence
[2] = inhibition of Axl activity, Table 1
[3] = inhibition of Axl activity, phospho-Akt in-cell Western assay, Table 1
[4] = Table 3, Hela cells, Axl antibody cross-linking stimulation, phospho-Akt chemiluminescence

CN1CCN(c2ccc(Nc3nc(N)nn3C(=O)c3cccc(N(C)C)c3)cc2)CC1 [compound 364, 3-amino-1-(3-(dimethylamino)phenyl)carbonyl-5-(4-(4-methylpiperazin-1-yl)phenylamino]-1H-1,2,4-triazole]
IC50 (Table 2, Hela cells, Axl antibody cross-linking stimulation, phospho-Akt chemiluminescence): 1000 to 10000 nM

Cc1cccc(NC(=O)n2nc(Nc3ccc(OCCN4CCCCC4)cc3)nc2N)c1 [compound 29, 5-amino-N-(3-methylphenyl)-3-[4-[2-(piperidin-1-yl)ethoxy]phenylamino]-1H-1,2,4-triazole-1-carboxamide]
IC50 [1]: < 1000 nM

Nc1nc(Nc2ccc3c(c2)OCCO3)nn1C(=O)c1cccc(OC2CCCC2)c1 [compound 127, 5-amino-1-(3-(cyclopentoxy)phenyl)carbonyl-3-(1,4-benzodioxan-6-yl)amino-1H-1,2,4-triazole]
IC50 [2]: 1000 to 10000 nM

Nc1nc(Nc2ccc3c(c2)OCCO3)nn1C(=O)c1cccc(OCC(F)(F)F)c1 [compound 228, 5-amino-3-(1,4-benzodioxan-6-yl)amino-1-(3-(2,2,2-trifluoroethoxy)phenyl)carbonyl-1H-1,2,4-triazole]
IC50 [2]: > 20000 nM

CC(C)Oc1ccc(C(=O)n2nc(Nc3ccc(OCCN4CCCCCC4)cc3)nc2N)cc1 [compound 321, 5-amino-1-(4-(iso-propoxy)phenyl)carbonyl-3-[4-[2-(azepan-1-yl)ethoxy]phenylamino]-1H-1,2,4-triazole]
IC50 [3]: < 1000 nM

Nc1nc(Nc2ccc(OCCN3CCCC3)cc2)nn1C(=O)c1ccc2cc[nH]c2c1 [compound #5, 5-Amino-1-(1H-indol-6-yl)carbonyl-3-[4-[2-(pyrrolidin-1-yl)ethoxy]phenylamino]-1H-1,2,4-triazole]
IC50 [4]: < 1000 nM

Nc1nc(Nc2ccc(OCCN3CCCC3)cc2)nn1C(=O)c1ccc(OC(F)(F)F)cc1 [compound #23, 5-Amino-3-[4-[2-(pyrrolidin-1-yl)ethoxy]phenylamino]-1-(4-(trifluoromethoxy)phenyl)carbonyl-1H-1,2,4-triazole]
IC50 [3]: < 1000 nM

CC(C)(C)Oc1ccc(C(=O)n2nc(Nc3ccccc3)nc2N)cc1 [compound 341, 5-amino-1-(4-(tert-butoxy)phenyl)carbonyl-3-(phenylamino)-1H-1,2,4-triazole]
IC50 [3]: 1000 to 10000 nM

COc1ccc(NC(=O)n2nc(Nc3ccc(OCCN4CCCCC4)cc3)nc2N)cc1OC [compound 43, 5-amino-N-(3,4-(dimethoxy)phenyl)-3-[4-[2-(piperidin-1-yl)ethoxy]phenylamino]-1H-1,2,4-triazole-1-carboxamide]
IC50 [1]: 1000 to 10000 nM

CC(=O)n1nc(Nc2ccc3c(c2)OCCO3)nc1N [compound 261, 1-Acetyl-5-amino-3-(1,4-benzodioxan-6-yl)amino-1H-1,2,4-triazole]
IC50 [4]: > 20000 nM

CC(C)(C)Oc1ccc(C(=O)n2nc(Nc3ccc(OCCN4CCCCC4)cc3)nc2N)cc1 [compound 50, 5-amino-3-[4-[2-(piperidin-1-yl)ethoxy]phenylamino]-1-(4-(tert-butoxy)phenyl)carbonyl-1H-1,2,4-triazole]
IC50 [2]: < 1000 nM

COc1cc(NC(=O)n2nc(Nc3ccc(OCCN4CCCC4)cc3)nc2N)cc(OC)c1 [compound 34, 5-amino-N-(3,5-(dimethoxy)phenyl)-3-[4-[2-(pyrrolidin-1-yl)ethoxy]phenylamino]-1H-1,2,4-triazole-1-carboxamide]
IC50 [1]: < 1000 nM

CN(C)c1cccc(C(=O)n2nc(Nc3ccc(OCCN4CCCCC4)cc3)nc2N)c1 [compound #11, 5-Amino-1-(3-(dimethylamino)phenyl)carbonyl-3-[4-[2-(piperidin-1-yl)ethoxy]phenylamino]-1H-1,2,4-triazole]
IC50 [3]: < 1000 nM

CC(C)(C)Oc1ccc(C(=O)n2nc(N)nc2NC2C3C=CC(C3)C2C(N)=O)cc1 (stereo not drawn) [compound 345, 3-amino-1-(4-(tert-butoxy)phenyl)carbonyl-5-[(3-(aminocarbonyl)bicyclo[2.2.1]hept-5-en-2-yl)amino]-1H-1,2,4-triazole]
IC50 (Table 6, Hela cells, Axl antibody cross-linking stimulation, phospho-Akt chemiluminescence): > 20000 nM

CC(C)c1ccc(C(=O)n2nc(Nc3ccc(OCCN4CCCCC4)cc3)nc2N)cc1 [compound 51, 5-amino-1-(4-(iso-propyl)phenyl)carbonyl-3-[4-[2-(piperidin-1-yl)ethoxy]phenylamino]-1H-1,2,4-triazole]
IC50 [2]: < 1000 nM

CCOc1ccc(Nc2nc(N)n(C(=O)c3ccc(OC(C)C)cc3)n2)cc1 [compound 118, 5-amino-3-[4-(ethoxy)phenylamino]-1-(4-(iso-propoxy)phenyl)carbonyl-1H-1,2,4-triazole]
IC50 [2]: 1000 to 10000 nM

CCOC(=O)c1cc2cc(Nc3nc(N)n(C(=O)c4cccc(OC(C)C)c4)n3)ccc2o1 [compound 103, 5-amino-3-(2-(ethoxycarbonyl)benzofuran-5-yl)amino-1-(3-(iso-propoxy)phenyl)carbonyl-1H-1,2,4-triazole]
IC50 (Table 5, Hela cells, Axl antibody cross-linking stimulation, phospho-Akt chemiluminescence): > 20000 nM

CC1(C)Oc2ccc(C(=O)n3nc(Nc4ccc(N5CCOCC5)cc4)nc3N)cc2NC1=O [compound 68, 5-amino-1-(2,2-dimethyl-2H-benzo[b][1,4]oxazin-3(4H)-on-6-yl)carbonyl-3-(4-(morpholin-4-yl)phenylamino)-1H-1,2,4-triazole]
IC50 [4]: 1000 to 10000 nM

Cc1ccc(C(=O)n2nc(Nc3ccc(F)cc3)nc2N)cc1 [compound 123, 5-amino-3-[4-(fluoro)phenylamino]-1-(4-(methyl)phenyl)carbonyl-1H-1,2,4-triazole]
IC50 [2]: 10000 to 20000 nM

CC(C)Oc1ccc(Nc2nc(N)n(C(=O)c3cccc([N+](=O)[O-])c3)n2)cc1 [compound 71, 5-amino-3-[4-(iso-propoxy)phenylamino]-1-(3-(nitro)phenyl)carbonyl-1H-1,2,4-triazole]
IC50 [2]: 1000 to 10000 nM

Nc1nc(Nc2ccc(OCCN3CCCC3)cc2)nn1C(=O)C1CC2C=CC1C2 (stereo not drawn) [compound 196, 5-amino-1-[2-(bicyclo[2.2.1]hept-5-ene)carbonyl]-3-[4-[2-(pyrrolidin-1-yl)ethoxy]phenylamino]-1H-1,2,4-triazole]
IC50 [4]: > 20000 nM
